Experiments:
[1] = Particle size distribution of Pyroxasulfone prepared in Example 8; assay type: physicochemical; conditions: product of Example 8 (H2O2/sodium tungstate oxidation, isopropyl alcohol/water treatment)
[2] = Bulk density of Pyroxasulfone prepared in Example 8; assay type: physicochemical; conditions: product of Example 8 (H2O2/sodium tungstate oxidation, isopropyl alcohol/water treatment)

Compound: Cn1nc(C(F)(F)F)c(CS(=O)(=O)C2=NOC(C)(C)C2)c1OC(F)F [Pyroxasulfone, 3-[5-(difluoromethoxy)-1-methyl-3-(trifluoromethyl)pyrazol-4-ylmethylsulfonyl]-4,5-dihydro-5,5-dimethyl-1,2-oxazole]
- Particle Size Distribution: D50 [1]: 113.30 μm
- Bulk density [2]: 0.54 to 0.57 g/mL
